The values that follow come from ChEMBL document CHEMBL4371033, “Highly Potent and Selective Plasmin Inhibitors Based on the Sunflower Trypsin Inhibitor-1 Scaffold Attenuate Fibrinolysis in Plasma” (J Med Chem, 2019).

The experiment addresses Plasminogen (Homo sapiens, UniProt P00747). Briefly: Inhibition of human plasmin using Ac-RM(O2)YR-pNA as substrate after 30 mins.

Molecules are shown by their SMILES. Residues, ends and D or L forms follow the SMILES beside them.

Plasminogen, sequence (P00747 97-580 limits assumed): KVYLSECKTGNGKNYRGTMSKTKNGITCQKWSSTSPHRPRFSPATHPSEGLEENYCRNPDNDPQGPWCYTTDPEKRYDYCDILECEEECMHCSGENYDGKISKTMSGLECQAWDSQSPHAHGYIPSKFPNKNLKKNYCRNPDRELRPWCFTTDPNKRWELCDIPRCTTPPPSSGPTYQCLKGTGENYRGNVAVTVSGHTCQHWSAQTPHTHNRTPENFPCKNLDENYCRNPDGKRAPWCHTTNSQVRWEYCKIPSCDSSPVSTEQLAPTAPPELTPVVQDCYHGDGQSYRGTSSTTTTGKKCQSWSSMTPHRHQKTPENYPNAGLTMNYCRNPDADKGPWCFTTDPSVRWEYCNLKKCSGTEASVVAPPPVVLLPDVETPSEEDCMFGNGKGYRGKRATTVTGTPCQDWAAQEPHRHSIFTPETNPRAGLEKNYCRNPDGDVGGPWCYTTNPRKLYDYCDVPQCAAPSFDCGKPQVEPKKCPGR
Plasminogen, sequence (P00747 581-810 limits assumed): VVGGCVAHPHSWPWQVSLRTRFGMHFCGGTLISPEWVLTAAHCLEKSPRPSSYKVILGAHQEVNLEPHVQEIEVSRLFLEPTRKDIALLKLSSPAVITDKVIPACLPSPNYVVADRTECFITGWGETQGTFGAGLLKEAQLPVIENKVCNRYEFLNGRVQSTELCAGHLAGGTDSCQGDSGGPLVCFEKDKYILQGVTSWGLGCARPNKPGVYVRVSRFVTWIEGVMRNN

Consider `CC[C@H](C)[C@@H]1NC(=O)[C@@H]2CCCN2C(=O)[C@@H]2CCCN2C(=O)[C@H](CCCNC(=N)N)NC(=O)[C@H](CO)NC(=O)[C@H](CCCNC(=N)N)NC(=O)[C@H](Cc2ccc(O)cc2)NC(=O)[C@@H]2CSSC[C@H](NC1=O)C(=O)N[C@@H](Cc1ccccc1)C(=O)N1CCC[C@H]1C(=O)N[C@@H](CC(=O)O)C(=O)NCC(=O)N[C@@H](CCCNC(=N)N)C(=O)N2` (HELM PEPTIDE1{C.F.P.D.G.R.C.Y.R.S.R.P.P.I}$PEPTIDE1,PEPTIDE1,1:R3-7:R3|PEPTIDE1,PEPTIDE1,1:R1-14:R2$$$V2.0), for which the affinity, expressed as Ki, was 16 nM. Take `N=C(N)NCCC[C@@H]1NC(=O)CNC(=O)[C@H](CC(=O)O)NC(=O)[C@@H]2CCCN2C(=O)[C@H](Cc2ccccc2)NC(=O)[C@@H]2CSSC[C@H](NC1=O)C(=O)N[C@@H](Cc1ccc(O)cc1)C(=O)N[C@@H](CCCCN)C(=O)N[C@@H](CO)C(=O)N[C@@H](CCCCN)C(=O)N1CCC[C@H]1C(=O)N1CCC[C@H]1C(=O)N[C@@H](CC(N)=O)C(=O)N2` (HELM PEPTIDE1{C.F.P.D.G.R.C.Y.K.S.K.P.P.N}$PEPTIDE1,PEPTIDE1,1:R3-7:R3|PEPTIDE1,PEPTIDE1,1:R1-14:R2$$$V2.0): the affinity corresponds to a Ki of 0.66 nM. For `CC[C@H](C)[C@@H]1NC(=O)[C@@H]2CCCN2C(=O)[C@@H]2CCCN2C(=O)[C@H](CCCCN)NC(=O)[C@H](CO)NC(=O)[C@H](CCCCN)NC(=O)[C@H](Cc2c[nH]c3ccccc23)NC(=O)[C@@H]2CSSC[C@H](NC1=O)C(=O)N[C@@H](Cc1ccccc1)C(=O)N1CCC[C@H]1C(=O)N[C@@H](CC(=O)O)C(=O)NCC(=O)N[C@@H](CCCNC(=N)N)C(=O)N2` (HELM PEPTIDE1{C.F.P.D.G.R.C.W.K.S.K.P.P.I}$PEPTIDE1,PEPTIDE1,1:R3-7:R3|PEPTIDE1,PEPTIDE1,1:R1-14:R2$$$V2.0), the Ki (in general, a dissociation constant, usually derived from enzyme kinetics or from competition with a known ligand) is 0.66 nM. That is a sub-nanomolar value. Next, `CC[C@H](C)[C@@H]1NC(=O)[C@@H]2CCCN2C(=O)[C@@H]2CCCN2C(=O)[C@H](CCCNC(=N)N)NC(=O)[C@H](CO)NC(=O)[C@H](CCCCN)NC(=O)[C@H](Cc2ccc(O)cc2)NC(=O)[C@@H]2CSSC[C@H](NC1=O)C(=O)N[C@@H](Cc1ccccc1)C(=O)N1CCC[C@H]1C(=O)N[C@@H](CCC(=O)O)C(=O)NCC(=O)NC(CCCCNC(=N)N)C(=O)N2` (some centres not stated) (HELM PEPTIDE1{C.F.P.E.G.[N=C(N)NCCCCC(N[*:1])C(=O)[*:2]].C.Y.K.S.R.P.P.I}$PEPTIDE1,PEPTIDE1,1:R3-7:R3|PEPTIDE1,PEPTIDE1,1:R1-14:R2$$$V2.0): 1.1 nM; `CC[C@H](C)[C@@H]1NC(=O)[C@@H]2CCCN2C(=O)[C@@H]2CCCN2C(=O)[C@H]([C@@H](C)CC)NC(=O)[C@H](CO)NC(=O)[C@H](CCCNC(=N)N)NC(=O)[C@H]([C@@H](C)O)NC(=O)[C@@H]2CSSC[C@H](NC1=O)C(=O)N[C@@H](Cc1ccccc1)C(=O)N1CCC[C@H]1C(=O)N[C@@H](CC(=O)O)C(=O)NCC(=O)N[C@@H](CCCNC(=N)N)C(=O)N2` (HELM PEPTIDE1{C.F.P.D.G.R.C.T.R.S.I.P.P.I}$PEPTIDE1,PEPTIDE1,1:R3-7:R3|PEPTIDE1,PEPTIDE1,1:R1-14:R2$$$V2.0): 120 nM; `CC[C@H](C)[C@@H]1NC(=O)[C@@H]2CCCN2C(=O)[C@@H]2CCCN2C(=O)[C@H](CCCCN)NC(=O)[C@H](CO)NC(=O)[C@H](CCCNC(=N)N)NC(=O)[C@H](Cc2ccc(O)cc2)NC(=O)[C@@H]2CSSC[C@H](NC1=O)C(=O)N[C@@H](Cc1ccccc1)C(=O)N1CCC[C@H]1C(=O)N[C@@H](CC(=O)O)C(=O)NCC(=O)N[C@@H](CCCNC(=N)N)C(=O)N2` (HELM PEPTIDE1{C.F.P.D.G.R.C.Y.R.S.K.P.P.I}$PEPTIDE1,PEPTIDE1,1:R3-7:R3|PEPTIDE1,PEPTIDE1,1:R1-14:R2$$$V2.0): 8.3 nM.

`CC[C@H](C)[C@@H]1NC(=O)[C@@H]2CCCN2C(=O)[C@@H]2CCCN2C(=O)[C@H](CCCCN)NC(=O)[C@H](CO)NC(=O)[C@H](CCCCN)NC(=O)[C@H](Cc2ccccc2)NC(=O)[C@@H]2CSSC[C@H](NC1=O)C(=O)N[C@@H](Cc1ccccc1)C(=O)N1CCC[C@H]1C(=O)N[C@@H](CC(=O)O)C(=O)NCC(=O)N[C@@H](CCCNC(=N)N)C(=O)N2` (HELM PEPTIDE1{C.F.K.S.K.P.P.I.C.F.P.D.G.R}$PEPTIDE1,PEPTIDE1,1:R3-9:R3|PEPTIDE1,PEPTIDE1,1:R1-14:R2$$$V2.0) gave an inhibition constant (Ki) of 0.61 nM. The molecule `N=C(N)NCCC[C@@H]1NC(=O)CNC(=O)[C@H](CC(=O)O)NC(=O)[C@@H]2CCCN2C(=O)[C@H](Cc2ccccc2)NC(=O)[C@@H]2CSSC[C@H](NC1=O)C(=O)N[C@@H](Cc1ccc(O)cc1)C(=O)N[C@@H](CCCCN)C(=O)N[C@@H](CO)C(=O)N[C@@H](CCCCN)C(=O)N1CCC[C@H]1C(=O)N1CCC[C@H]1C(=O)N[C@@H](CCCCN)C(=O)N2` (HELM PEPTIDE1{C.F.P.D.G.R.C.Y.K.S.K.P.P.K}$PEPTIDE1,PEPTIDE1,1:R3-7:R3|PEPTIDE1,PEPTIDE1,1:R1-14:R2$$$V2.0) yielded an inhibitory constant (Ki) of 2.5 nM. In turn, `N=C(N)NCCC[C@@H]1NC(=O)CNC(=O)[C@H](CC(=O)O)NC(=O)[C@@H]2CCCN2C(=O)[C@H](Cc2ccccc2)NC(=O)[C@@H]2CSSC[C@H](NC1=O)C(=O)N[C@@H](Cc1ccc(O)cc1)C(=O)N[C@@H](CCCCN)C(=O)N[C@@H](CO)C(=O)N[C@@H](CCCCN)C(=O)N1CCC[C@H]1C(=O)N1CCC[C@H]1C(=O)N[C@@H](CCCNC(=N)N)C(=O)N2` (HELM PEPTIDE1{C.F.P.D.G.R.C.Y.K.S.K.P.P.R}$PEPTIDE1,PEPTIDE1,1:R3-7:R3|PEPTIDE1,PEPTIDE1,1:R1-14:R2$$$V2.0) had a Ki of 4.7 nM. This Ki lies about 1.9-fold higher than the previous one. Turning to `N=C(N)NCCC[C@@H]1NC(=O)CNC(=O)[C@H](CC(=O)O)NC(=O)[C@@H]2CCCN2C(=O)[C@H](Cc2ccccc2)NC(=O)[C@@H]2CSSC[C@H](NC1=O)C(=O)N[C@@H](Cc1ccc(O)cc1)C(=O)N[C@@H](CCCCN)C(=O)N[C@@H](CO)C(=O)N[C@@H](CCCCN)C(=O)N1CCC[C@H]1C(=O)N1CCC[C@H]1C(=O)N[C@@H](CCC(N)=O)C(=O)N2` (HELM PEPTIDE1{C.F.P.D.G.R.C.Y.K.S.K.P.P.Q}$PEPTIDE1,PEPTIDE1,1:R3-7:R3|PEPTIDE1,PEPTIDE1,1:R1-14:R2$$$V2.0), the Ki came out at 1.8 nM. Next, `CC[C@H](C)[C@@H]1NC(=O)[C@@H]2CCCN2C(=O)[C@@H]2CCCN2C(=O)[C@H](CCCNC(=N)N)NC(=O)[C@H](CO)NC(=O)[C@H](CCCCN)NC(=O)[C@H]([C@@H](C)O)NC(=O)[C@@H]2CSSC[C@H](NC1=O)C(=O)N[C@@H](Cc1ccccc1)C(=O)N1CCC[C@H]1C(=O)N[C@@H](CC(=O)O)C(=O)NCC(=O)N[C@@H](CCCNC(=N)N)C(=O)N2` (HELM PEPTIDE1{C.F.P.D.G.R.C.T.K.S.R.P.P.I}$PEPTIDE1,PEPTIDE1,1:R3-7:R3|PEPTIDE1,PEPTIDE1,1:R1-14:R2$$$V2.0): 2 nM. The molecule `CC[C@H](C)[C@@H]1NC(=O)[C@@H]2CCCN2C(=O)[C@@H]2CCCN2C(=O)[C@H](CCCNC(=N)N)NC(=O)[C@H](CO)NC(=O)[C@H](CCCCN)NC(=O)[C@H](Cc2ccc(O)cc2)NC(=O)[C@@H]2CSSC[C@H](NC1=O)C(=O)N[C@@H](Cc1ccccc1)C(=O)N1CCC[C@H]1C(=O)N[C@@H](CC(N)=O)C(=O)NCC(=O)N[C@@H](CCCNC(=N)N)C(=O)N2` (HELM PEPTIDE1{C.F.P.N.G.R.C.Y.K.S.R.P.P.I}$PEPTIDE1,PEPTIDE1,1:R3-7:R3|PEPTIDE1,PEPTIDE1,1:R1-14:R2$$$V2.0) registered an inhibition constant (Ki) of 1.2 nM.
